For the assay, the system named is NL4-3 strain of HIV-1. Kind of assay: HIV-1 replication assay: cyto-protection of MT4 cells infected with NL4-3 virus, CellTiter-Glo viability readout. Type of assay: cell-based. The method, then: The antiviral activity, particularly against HIV, of compounds according to the invention is evaluated by the protocol described below.
Preparation of Virus stock of the NL4-3 strain of HIV-1 (Adachi et al, J Virol, 1986, 59(2):284-91).
The virus was prepared as described in Lopez et al (Lopez et al, Proc Natl Acad Sci USA., 2006, 103(40):14947-52, by transfecting 2×10^6 293 T cells (CRL-1573, ATCC) with following modifications: 6 μg of NL4-3 proviral DNA molecular clone were mixed with X-tremeGENE 9 DNA transfection reagent from Roche, and used according to manufacturer's instructions. Twenty four hours later, cells were washed and fresh medium added. Forty eight hours after transfection, cell supernatants were harvested, filtered through 0.45-μm-pore-size filters, quantified for HIV-1 p24 antigen by using an Innotest HIV antigen mAb assay (Ingen) according to manufacturer's instructions, and used in infection experiments.
Serial dilutions of compounds to be tested were prepared in complete RPMI medium from 10 mM DMSO stock solutions, and distributed in a volume of 20 μl in 96 well tissue-culture treated plates (Costar 3917), in order to get 0.5% DMSO final concentration in each well, after the addition of infected cells. Control wells contained also 0.5% DMSO final concentration but no compound.
MT4 cells (from the NIH AIDS Research and Reference Reagent Program) in RPMI complete medium were counted (10×10^6 cells per well in Falcon 353047 Multiwell™ 24 well) and infected for 2 hours at 37°, at a multiplicity of infection (moi) of 0.0001-0.00001. Cells were then centrifuged for 3 min at 3000 rpm, and washed two times in 1 ml PBS to remove viruses that have not entered the cells. Infected cells were resuspended in complete RPMI at 1.25×10^6 cells/ml, and 80 μl of infected cells were distributed in each well containing compounds to be tested or control wells. The plates were then incubated at 37° C. for 5 days.
Assay used to measure the inhibition of HIV replication by the compounds (according to Gregg S. Jones et al., Antimicrobial Agents and Chemotherapy, 2009, 53 (3): 1194-1203).
After 5 days of incubation, microplates were equilibrated to room temperature for 30 min and then 50 μl of CellTiter-Glo reagent (Promega Biosciences, Inc., Madison Wis., USA) were added to each well. Cell lysis was carried out at room temperature during 10 min and luminescence was read on a Fluoroskan (Thermo Scientific).
The EC50, or effective concentration 50, is the concentration of compound leading to 50% of cyto-protection in a CellTiter-Glo® viability assay based on MT4 cells infected with NL4-3 virus (table 1).
On the technique in general: Cellular ATP, detected with luciferase, serves as a proxy for viable cell number.

Where [1] appears, read: Human immunodeficiency virus 1, NL43, 120 h, concentration leading to 50% of cyto-protection, MT4 cells infected with NL4-3 virus, 5 days incubation, CellTiter-Glo, read-out: EC50.

Where two headings read alike, the source gives them in different places.

What is called EC50 is the concentration needed to bring the measured effect to its halfway point. Consider `Cc1ccc(C2CC2)c(-c2ccc3c(c2C)CCCO3)c1[C@H](OC(C)(C)C)C(=O)O` (atropisomer, axis not shown) [Example 38, (S)-tert-butoxy-[3-cyclopropyl-6-methyl-2-(5-methyl-chroman-6-yl)-phenyl]-acetic acid], for which the EC50 under setting [1] was 3 nM. Consider `Cc1ccc(C2CC2)c(-c2ccc3c(c2C)CCCO3)c1[C@H](OC1CC1)C(=O)O` (atropisomer, axis not shown) [Example 40, (S)-cyclopropoxy-[3-cyclopropyl-6-methyl-2-(5-methyl-chroman-6-yl)-phenyl]-acetic acid], for which the EC50 under setting [1] turned out to be 14 nM.

With `Cc1ccc(C2CC2)c(-c2cc(F)c3c(c2C)CCCO3)c1[C@H](OC(C)(C)C)C(=O)O` (atropisomer, axis not shown) [Example 41, (S)-tert-butoxy-[3-cyclopropyl-2-(8-fluoro-5-methyl-chroman-6-yl)-6-methyl-phenyl]-acetic acid], the EC50 under setting [1] was determined as 6 nM. In the case of `Cc1ccc(C2CC2)c(-c2cc(F)c3c(c2C)CCCO3)c1[C@H](OC1CC1)C(=O)O` (atropisomer, axis not shown) [Example 44, (S)-cyclopropoxy-[3-cyclopropyl-2-(8-fluoro-5-methyl-chroman-6-yl)-6-methyl-phenyl]-acetic acid], the EC50 under setting [1] was determined as 17 nM. Consider `Cc1ccc([C@@H]2C[C@@H]2C)c(-c2ccc3c(c2)CCCO3)c1C(OC(C)(C)C)C(=O)O` (relative stereo) [Example 26, tert-Butoxy-[2-chroman-6-yl-6-methyl-3-(cis-2-methyl-cyclopropyl)-phenyl]-acetic acid], for which the EC50 under setting [1] worked out at 300 nM. On the same count and under the same terms, with `Cc1ccc(C2CC2)c(-c2ccc3c(c2)CCCO3)c1C(OC(C)(C)C)C(=O)O` (stereo not shown) [Example 1, 2-(tert-butoxy)-2-[3-cyclopropyl-2-(3,4-dihydro-2H-1-benzopyran-6-yl)-6-methylphenyl]acetic acid] the figure was 17 nM; with `CC(C)(C)OC(C(=O)O)c1c(C(F)(F)F)ccc(C2CC2)c1-c1ccc2c(c1)CCCO2` (stereo not shown) [Example 2, 2-(tert-butoxy)-2-[3-cyclopropyl-2-(3,4-dihydro-2H-1-benzopyran-6-yl)-6-(trifluoromethyl)phenyl]acetic acid], 90 nM.

With `C=C(C)c1ccc(C)c(C(OC(C)(C)C)C(=O)O)c1-c1ccc2c(c1)CCCO2` (stereo not shown) [Example 4, 2-(tert-butoxy)-2-[2-(3,4-dihydro-2H-1-benzopyran-6-yl)-3-isopropenyl-6-methylphenyl]acetic acid], under setting [1], the EC50 is 34 nM. The same measure, in the same setting: for `Cc1ccc(C(C)C)c(-c2ccc3c(c2)CCCO3)c1C(OC(C)(C)C)C(=O)O` (stereo not shown) [Example 5, 2-(tert-butoxy)-2-[2-(3,4-dihydro-2H-1-benzopyran-6-yl)-3-isopropyl-6-methylphenyl]acetic acid] the value was 23 nM; for `CC(C)(C)OC(C(=O)O)c1c(C(F)(F)F)ccc(C2CCCC2)c1-c1ccc2c(c1)CCCO2` (stereo not shown) [Example 6, 2-(tert-butoxy)-2-[3-(cyclopentyl)-2-(3,4-dihydro-2H-1-benzopyran-6-yl)-6-(trifluoromethyl)phenyl]acetic acid], 270 nM; for `COc1c(-c2nc3ccccc3[nH]2)cc(C(F)(F)F)c(C(OC(C)(C)C)C(=O)O)c1-c1ccc2c(c1)CCCO2` (stereo not shown) [Example 7, 2-[4-(1H-1,3-benzodiazol-2-yl)-2-(3,4-dihydro-2H-1-benzopyran-6-yl)-3-methoxy-6-(trifluoromethyl)phenyl]-2-(tert-butoxy)acetic acid], 62 nM. Turning to `C=C(C)c1ccc(C(F)(F)F)c(C(OC(C)(C)C)C(=O)O)c1-c1ccc2c(c1)CCCO2` (stereo not shown) [Example 8, 2-(tert-butoxy)-2-[2-(3,4-dihydro-2H-1-benzopyran-6-yl)-3-(prop-1-en-2-yl)-6-(trifluoromethyl)phenyl]acetic acid], the EC50 under setting [1] came to 190 nM. Still for that read-out and setting: with `C=Cc1ccc(C(F)(F)F)c(C(OC(C)(C)C)C(=O)O)c1-c1ccc2c(c1)CCCO2` (stereo not shown) [Example 9, 2-(tert-butoxy)-2-[2-(3,4-dihydro-2H-1-benzopyran-6-yl)-3-ethenyl-6-(trifluoromethyl)phenyl]acetic acid] the figure was 500 nM; with `CC(C)c1ccc(C(F)(F)F)c(C(OC(C)(C)C)C(=O)O)c1-c1ccc2c(c1)CCCO2` (stereo not shown) [Example 10, 2-(tert-butoxy)-2-[2-(3,4-dihydro-2H-1-benzopyran-6-yl)-3-(propan-2-yl)-6-(trifluoromethyl)phenyl]acetic acid], 84 nM; with `CCc1ccc(C(F)(F)F)c(C(OC(C)(C)C)C(=O)O)c1-c1ccc2c(c1)CCCO2` (stereo not shown) [Example 11, 2-(tert-butoxy)-2-[2-(3,4-dihydro-2H-1-benzopyran-6-yl)-3-ethyl-6-(trifluoromethyl)phenyl]acetic acid], 360 nM. Turning to `COc1ccc(-c2c(C3CC3)ccc(C)c2C(OC(C)(C)C)C(=O)O)cc1` (stereo not shown) [Example 12, 2-(tert-butoxy)-2-(6-cyclopropyl-4′-methoxy-3-methyl-biphenyl-2-yl]acetic acid], the EC50 under setting [1] was found to be 78 nM. Same read-out and setting: with `Cc1ccc(C2CC2)c(-c2ccc3c(c2)CCCO3)c1[C@H](OC(C)(C)C)C(=O)O` [Example 13, (S)-2-(tert-butoxy)-2-[3-cyclopropyl-2-(3,4-dihydro-2H-1-benzopyran-6-yl)-6-methylphenyl]acetic acid] the figure was 8 nM; with `Cc1ccc(-c2c(C3CC3)ccc(C)c2C(OC(C)(C)C)C(=O)O)cc1` (stereo not shown) [Example 14, 2-(tert-butoxy)-2-(6-cyclopropyl-3,4′-dimethyl-biphenyl-2-yl)-acetic acid], 51 nM. On the same count and under the same terms, for `Cc1ccc(C2CC2)c(-c2ccc(F)cc2)c1C(OC(C)(C)C)C(=O)O` (stereo not shown) [Example 15, 2-(tert-butoxy)-2-(6-cyclopropyl-4′-fluoro-3-methyl-biphenyl-2-yl)-acetic acid] the value was 340 nM; for `Cc1ccc(C2CC2)c(-c2ccc3c(c2C)CCCO3)c1C(OC(C)(C)C)C(=O)O` (stereo not shown) [Example 16, 2-(tert-butoxy)-2-[3-cyclopropyl-6-methyl-2-(5-methyl-chroman-6-yl)-phenyl]acetic acid], 9 nM.

Turning to `Cc1ccc(C2C[C@H]2C2CC2)c(-c2ccc3c(c2)CCCO3)c1C(OC(C)(C)C)C(=O)O` (stereo partly drawn) [Example 17, (trans-3-bicyclopropyl-2-yl-2-chroman-6-yl-6-methyl-phenyl)-tert-butoxy-acetic acid], under setting [1], the EC50 came out at 330 nM. On to `Cc1ccc(C2CC2)c(C2=CCC(C)(C)CC2)c1C(OC(C)(C)C)C(=O)O` (stereo not shown) [Example 18, 2-(tert-butoxy)-2-[3-cyclopropyl-2-(4,4-dimethyl-cyclohex-1-enyl)-6-methyl-phenyl]acetic acid], for which the EC50 under setting [1] was 19 nM.

For `CCOC(C(=O)O)c1c(C)ccc(C2CC2)c1-c1ccc2c(c1)CCCO2` (stereo not shown) [Example 19, 2-(2-chroman-6-yl-3-cyclopropyl-6-methyl-phenyl)-2-ethoxy-acetic acid], the EC50 under setting [1] is 400 nM. As for `Cc1ccc(C2CC2)c(-c2ccc(Cl)cc2)c1C(OC(C)(C)C)C(=O)O` (stereo not shown) [Example 20, 2-(tert-butoxy)-2-(4′-chloro-6-cyclopropyl-3-methyl-biphenyl-2-yl)acetic acid], the EC50 under setting [1] worked out at 54 nM. The same measure, in the same setting: for `Cc1ccc(C2CC2)c(-c2cc(F)c3c(c2C)CCCO3)c1C(OC(C)(C)C)C(=O)O` (stereo not shown) [Example 21, tert-butoxy-[3-cyclopropyl-2-(8-fluoro-5-methyl-chroman-6-yl)-6-methyl-phenyl]-acetic acid] the value was 14 nM. Under “Human immunodeficiency virus 1, NL43, MT4, 120 h”, `Cc1ccc(CC2CC2)c(-c2ccc3c(c2)CCCO3)c1C(OC(C)(C)C)C(=O)O` (stereo not shown) [Example 22, tert-Butoxy-(2-chroman-6-yl-3-cyclopropylmethyl-6-methyl-phenyl)-acetic acid] yielded an EC50 of 91 nM.

With `Cc1ccc(C2CC2)c(-c2ccc3c(c2)CCCO3)c1C(OC1CC1)C(=O)O` (stereo not shown) [Example 23, 2-[3-cyclopropyl-2-(3,4-dihydro-2H-1-benzopyran-6-yl)-6-methylphenyl]-2-cyclopropoxyacetic acid], under setting [1], the EC50 turned out to be 100 nM. On to `Cc1ccc(C2CC2)c(-c2ccc3c(c2)CCCO3)c1[C@H](OC1CC1)C(=O)O` [Example 24, (S)-2-[3-cyclopropyl-2-(3,4-dihydro-2H-1-benzopyran-6-yl)-6-methylphenyl]-2-cyclopropoxyacetic acid], for which the EC50 under setting [1] is 42 nM.
